Results published in patent US20130058930A1 (ANTARES PHARMA, INC., priority 2011, published 2013).
Read-outs that look alike come from different tables or passages of the source.

Columns and labels:
[1] = cited from earlier work; for average mean serum concentration: pediatric patients with juvenile rheumatoid arthritis
[2] = Three-period crossover relative bioavailability study of methotrexate injectable solutions (Vibex device SC vs needle and syringe SC and IM); format: in vivo, human; settings: for AUC(0-inf) / Tmax / AUC(0-t) / Cmax / half-life: human, plasma, sc, subcutaneous with Vibex device
Procedure: This was a randomized, open-label, 3-way crossover study involving 36 subjects. During the screening period, 1 of 4 MTX dose groups (10 mg, 15 mg, 20 mg, or 25 mg) were selected by the investigator for each subject based on the subject's current MTX dose at the time of enrollment and disease status (controlled RA vs. uncontrolled RA). […] One of six treatment sequences was possible as determined by the randomization schedule.
A total of approximately 200 ml blood was obtained from each subject over the course of the study.
Immediately following collection of each sample, each tube was gently inverted and placed in ice. Within 30 minutes of sample collection, the tubes were centrifuged at about 2000×G for 15 minutes at approximately 4° C. in order to separate the cells from the plasma. No aids for separation were used. The plasma was transferred with clean pipettes and placed in two polypropylene storage tubes in equal volumes. The storage tubes were labeled with the following information: protocol number, subject number, period number, relative time of sample, and analyte. The label was taped with clear tape to assure adherence of the label. The storage tubes were placed in a freezer at […] or below until they analyzed.
Briefly, in an ice water bath, 100 μL of the human K2EDTA plasma sample was placed in a 2-ml centrifuge tube. 10 μL of working standard solution and 10 μL of internal standard were added to the tubes. Afterwards, […] of 30% formic acid in water was added to the tubes and 0.2 ml of cold precipitation solution (acetonitrile) was added, vortexed and centrifuged. The supernatant was transferred to a 96-well plate for LC/MS/MS analysis. A volume of approximately 5 μL of the sample was injected into an LC/MS/MS system. The LC/MS/MS analysis was carried out with a Sciex API-4000 mass spectrometer coupled with a Shimadzu LC system. […] Calibration curves and quality control samples were included in each run. The ranges of the assay for both analyses were from 1 ng/ml to 1000 ng/ml, and the limit of quantification for both analyses was 1 ng/ml.
Concentration values that were reported as below the limit of quantification (BLQ) were treated as 0 for computing mean concentrations and in the concentration-time graphs. […] Concentrations in plasma were used as reported; but measurable concentrations observed after obtaining a BLQ result were excluded from analysis.
The Linear Up Log Down method (equivalent to the Linear Up/Log Down option in WinNonlin® Professional) was used in the computation of AUCs. The linear trapezoidal method was employed for any area where the concentration data was increasing (or constant) and the logarithmic trapezoidal method for any area where the concentration data was decreasing. Interpolation of concentration values was conducted using the linear interpolation rule for any time point surrounded by points of increasing (or constant) concentrations and the logarithmic interpolation rule for any time point surrounded by points of decreasing concentrations.
Pharmacokinetic parameters were calculated from the individual concentrations of MTX using noncompartmental methods. […] Secondary PK parameters calculated for each treatment were the following: time of maximum concentration (t . . . ), half-life (tin), Lambda z, and percent of area under the curve extrapolated.
Comparisons among treatments were evaluated by a mixed model analysis of the log-transformed, dose-normalized values of Cmax, AUC(0-t), and AUC(0-inf) with sequence, treatment, and treatment period as fixed effects and subject nested within sequence as a random effect. Using these models, the least-squares (LS) mean for the above PK parameters of each treatment were determined. The differences in LS means among treatments and the 90% confidence intervals (CIs) for the differences in the log-scale LS means among treatment were also obtained.

CN(Cc1cnc2nc(N)nc(N)c2n1)c1ccc(C(=O)N[C@@H](CCC(=O)O)C(=O)O)cc1 [methotrexate, N-[4-[[(2,4-diamino-6-pteridinyl)methyl]methylamino]benzoyl]-L-glutamic acid]
initial average distribution volume ([1]; after intravenous administration): about 0.18 L/Kg
absorption from parenteral routes of injection ([1]; in vivo): completely absorbed
average mean serum concentration ([1]; at about 1 hour): about 0.59 μM
average mean serum concentration ([1]; at about 2 hours): about 0.44 μM
average mean serum concentration ([1]; at about 3 hours): about 0.29 μM
AUC(0-inf) ([2]; 10 mg, 10 mg single dose): ~1160 ng·h/mL
Tmax ([2]; 10 mg, 10 mg single dose): 1.33 h
AUC(0-t) ([2]; 10 mg, 10 mg single dose, read-out: AUC(0-24)): ~1150 ng·h/mL
AUC(0-t) ([2]; 10 mg, 10 mg single dose, read-out: AUC(0-t)): ~1140 ng·h/mL
Cmax ([2]; 10 mg, 10 mg single dose, subjects with rheumatoid arthritis): ~213 ng/mL
AUC(0-inf) ([2]; 15 mg, 15 mg single dose): ~1980 ng·h/mL
Cmax ([2]; 15 mg, 15 mg single dose): ~356 ng/mL
Tmax ([2]; 15 mg, 15 mg single dose): ~1.25 h
half-life ([2]; 15 mg, 15 mg single dose): ~3.68 h
AUC(0-t) ([2]; 15 mg, 15 mg single dose, read-out: AUC(0-24)): ~1950 ng·h/mL
AUC(0-t) ([2]; 15 mg, 15 mg single dose, read-out: AUC(0-t)): ~1940 ng·h/mL
AUC(0-inf) ([2]; 20 mg, 20 mg single dose): ~2220 ng·h/mL
Cmax ([2]; 20 mg, 20 mg single dose): ~417 ng/mL
Tmax ([2]; 20 mg, 20 mg single dose): ~1.17 h
half-life ([2]; 20 mg, 20 mg single dose): ~3.58 h
AUC(0-t) ([2]; 20 mg, 20 mg single dose, read-out: AUC(0-24)): ~2190 ng·h/mL
AUC(0-t) ([2]; 20 mg, 20 mg single dose, read-out: AUC(0-t)): ~2190 ng·h/mL
AUC(0-inf) ([2]; 25 mg, 25 mg single dose): ~2840 ng·h/mL
Cmax ([2]; 25 mg, 25 mg single dose): ~491 ng/mL
Tmax ([2]; 25 mg, 25 mg single dose): ~1.23 h
half-life ([2]; 25 mg, 25 mg single dose): ~3.78 h
AUC(0-t) ([2]; 25 mg, 25 mg single dose, read-out: AUC(0-24)): ~2800 ng·h/mL
AUC(0-t) ([2]; 25 mg, 25 mg single dose, read-out: AUC(0-t)): ~2800 ng·h/mL
dose proportionality of observed plasma levels ([2]; single-dose administration, 10 mg to 25 mg dose range): increase linearly in a dose-proportionate manner
